Patent US20240325544A1, “CATIONIC LIPID FOR COVALENT MODIFICATION OF PEPTIDES” (PharmalN Corporation, priority 2023, published 2024)
Bridge positions count the residues as written; N and C are the ends. Square brackets hold non-standard residues; d marks the D form. Peptide text beside a SMILES is read from it. * marks the point of attachment. Palmitoyl = CCCCCCCCCCCCCCCC(=O)*; Dab = NCC[C@H](N)C(=O)O; Dap = NC[C@H](N)C(=O)O; AEEA = NCCOCCOCC(=O)O

Key:
[1] = Plasma concentration of respective natriuretic peptide by ELISA after SC bolus in CD-1 mice (pharmacokinetics, Table 3); conditions: male, CD-1, mouse, in vivo, sc, 1 mg/kg
How it was run: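 Peptides given SC in sterile water; retro-orbital blood at 2 and 6 h post-dose (two bleeds per mouse), K2EDTA plasma. Plasma cGMP by commercial immunoassay kit; ANP, BNP or CNP plasma levels by peptide-specific ELISA.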

cGMP = assay: Plasma cGMP profile after single SC injection in CD-1 mice (FIG. 1B); type: in vivo; conditions: 1.0 mg/kg SC, 0-24 hours
Procedure: The animals were kept in PharmaIN animal facility with controlled temperature (68-74° F.) and humidity (30-60%), and a 12-hour light/dark cycle. […] Lead buffer was used to formulate or dissolve all test articles on the day of administration. Blood sampling: Blood samples were collected via retro-orbital bleed at several timepoints (0, 0.5, 1, 2, 4, 6, 8, and 24 hours) and processed in K2EDTA tubes (2000× g; 15 min, 4° C. within 30 minutes after collection) to obtain plasma. Plasma samples were aliquoted and stored at −80° C. until analysis. Biochemical analysis: For pharmacokinetic study, plasma aliquots were thawed at 4° C. then analyzed using a commercially available CNP ELISA kit from Phoenix Pharmaceuticals (cat #EKE-012-03), which detects the cyclic structure of CNP and all CNP derivatives with the same level of reactivity to the ELISA kit. […] For pharmacodynamic or bioactivity study of cGMP, plasma aliquots were thawed at 4° C. then analyzed using a commercially available cGMP kit from Abcam (ab133052, Waltham, MA).

C57BL/6J mice = assay: Survival in LPS induced ALI model (FIG. 2B); type: in vivo; conditions: LPS 20 mg/kg IT; 0.3 mg/kg (0.1 μmol/kg) IT every 24 hours, 3 doses, survival to 72 hours
Procedure: FIGS. 2A-2B: Single and repeat administration of cationic alkyl modified C-type Natriuretic Peptides increases probability of survival in LPS induced Sepsis and ALI animal models. FIG. 2A) Sepsis induction: Male C57BL/6J mice (n=10 per group; 3 groups) were injected IP with LPS (15 mg/kg) and treated with various test articles, including cationic alkyl modified CNPs (SEQ ID NO: 31 and 29; 0.3 mg/kg (0.1 μmol/kg) SC). The control group received LPS treatment without any test article. The test articles were administered immediately after LPS administration (marked with vertical dotted lines). Survival was monitored every 2 hours from 8-56 hours, after which the surviving mice were euthanized under isoflurane anesthesia. […] Survival was monitored every 8 hours for 72 hours, after which the surviving mice were euthanized under isoflurane anesthesia. […]
Animal care and treatment: Male C57BL/6J mice (6 weeks-old) were purchased from Kyudo (Saga, Japan) and maintained under a 12-hour light/12-hour dark cycle with free access to water and standard mouse diet (MF diet, Oriental Yeast Co., Ltd. Tokyo, Japan). […] Survival was monitored every 2 hours from 8-56 hours, after which the mice were euthanized under isoflurane anesthesia. […] Survival was monitored every 8 hours for 72 hours, after which the mice were euthanized under isoflurane anesthesia. […]

Structure (SMILES) | level at 2 h [1] [ng/mL] | level at 6 h [1] [ng/mL] | Plasma cGMP levels over time compared to native CNP (cGMP) | Survival (C57BL/6J mice)
CCCCCCCCCCCCCCCC(=O)NCCOCCOCC(=O)NCCOCCOCC(=O)NCCOCCOCC(=O)N[C@@H](CN)C(=O)N[C@@H](CN)C(=O)NCC(=O)N[C@@H](CC(C)C)C(=O)N[C@@H](CO)C(=O)N[C@@H](CCCCN)C(=O)NCC(=O)N[C@H]1CSSC[C@@H](C(=O)O)NC(=O)CNC(=O)[C@H](CC(C)C)NC(=O)CNC(=O)[C@H](CO)NC(=O)[C@H](CCC(N)=O)NC(=O)[C@H](CO)NC(=O)CNC(=O)[C@H]([C@@H](C)CC)NC(=O)[C@H](CCCNC(=N)N)NC(=O)[C@H](CC(=O)O)NC(=O)[C@H](CC(C)C)NC(=O)[C@H](CCCCN)NC(=O)[C@H](CC(C)C)NC(=O)CNC(=O)[C@H](Cc2ccccc2)NC1=O [SEQ ID NO: 31] ({Palmitoyl-AEEA-AEEA-AEEA}-[Dap][Dap]GLSKGCFGLKLDRIGSQSGLGC-OH; disulfide 8-24; C-terminus assumed) | 76.8 | 14.8 | sustained elevation of cGMP levels | effective in improving survival
CCCCCCCCCCCCCCCC(=O)NCCOCCOCC(=O)NCCOCCOCC(=O)NCCOCCOCC(=O)N[C@@H](CCN)C(=O)N[C@@H](CCN)C(=O)NCC(=O)N[C@@H](CC(C)C)C(=O)N[C@@H](CO)C(=O)N[C@@H](CCCCN)C(=O)NCC(=O)N[C@H]1CSSC[C@@H](C(=O)O)NC(=O)CNC(=O)[C@H](CC(C)C)NC(=O)CNC(=O)[C@H](CO)NC(=O)[C@H](CCC(N)=O)NC(=O)[C@H](CO)NC(=O)CNC(=O)[C@H]([C@@H](C)CC)NC(=O)[C@H](CCCNC(=N)N)NC(=O)[C@H](CC(=O)O)NC(=O)[C@H](CC(C)C)NC(=O)[C@H](CCCCN)NC(=O)[C@H](CC(C)C)NC(=O)CNC(=O)[C@H](Cc2ccccc2)NC1=O [SEQ ID NO: 29] ({Palmitoyl-AEEA-AEEA-AEEA}-[Dab][Dab]GLSKGCFGLKLDRIGSQSGLGC-OH; disulfide 8-24; C-terminus assumed) | 18 | 8.93 | sustained elevation of cGMP levels | effective in improving survival
